# From ChEMBL document CHEMBL1201862, “PubChem BioAssay data set” (2004)
# Several values for one entry are separate records, joined by “and”; a condition that tells them apart may be missing. Equal entries are not always repeated.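 How tested: cells in 96-well plates exposed to compound for 48 hours at five concentrations. The concentration for 50% growth inhibition is given as GI50.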 Activity calls are given as the source filed them. No stated cut-off is given here; in the data, active = GI50 up to about 1.1 µM and inactive = higher.
# Columns and labels:
# Experiment in all cases: growth of human tumour cells (NCI), 48 h
# OVCAR-3 = tested on: OVCAR-3
# ACHN = tested on: ACHN
# U-251 = tested on: U-251
# MOLT-4 = tested on: MOLT-4
# UO-31 = tested on: UO-31
# HL-60 = tested on: HL-60
# UACC-62 = tested on: UACC-62
# SR = tested on: SR
# COLO 205 = tested on: COLO 205
# OVCAR-4 = tested on: OVCAR-4
# UACC-257 = tested on: UACC-257
# Malme-3M = tested on: Malme-3M
# 786-0 = tested on: 786-0
# A549 = tested on: A549
# NCI-H226 = tested on: NCI-H226
Structure (SMILES),GI50 (OVCAR-3),GI50 (ACHN),GI50 (U-251),GI50 (MOLT-4),GI50 (UO-31),GI50 (HL-60),GI50 (UACC-62),GI50 (SR),GI50 (COLO 205),GI50 (OVCAR-4),GI50 (UACC-257),GI50 (Malme-3M),GI50 (786-0),GI50 (A549),GI50 (NCI-H226)
C=CCn1c(=S)sc2c(O)ncnc21,> 100 µM (inactive),> 100 µM (inactive),48.8 µM (inactive),> 100 µM (inactive),> 100 µM (inactive),> 100 µM (inactive),> 100 µM (inactive),> 100 µM (inactive),> 100 µM (inactive),> 100 µM (inactive),> 100 µM (inactive),> 100 µM (inactive),> 100 µM (inactive),> 100 µM (inactive),
COC(=O)C(Cc1nc2ccccc2nc1C)/C(=N\NC(N)=O)C(=O)Nc1cccc([N+](=O)[O-])c1 (stereo unspecified),51.2 µM (inactive),> 100 µM (inactive),37.6 µM (inactive),57.5 µM (inactive),> 100 µM (inactive),36.1 µM (inactive),45.2 µM (inactive),24.4 µM (inactive),88.3 µM (inactive),> 100 µM (inactive),> 100 µM (inactive),> 100 µM (inactive),> 100 µM (inactive),> 100 µM (inactive),> 100 µM (inactive)
Cc1ccc(N2C(=O)/C(=C3\Sc4c(nc(C)[nH]c4=O)N3c3ccccc3)SC2=S)cc1,18.4 µM (inactive),28.8 µM (inactive),17.3 µM (inactive),,29.2 µM (inactive),> 100 µM (inactive),> 100 µM (inactive),,> 100 µM (inactive),29.2 µM (inactive),> 100 µM (inactive),46.8 µM (inactive),10.4 µM (inactive),43 µM (inactive),30.5 µM (inactive)
COC(=O)C1=CC2CC1C(S(=O)(=O)c1ccccc1)C2S(=O)(=O)c1ccccc1 (stereo unspecified),7.23 µM (inactive),7.48 µM (inactive),17.3 µM (inactive),4.42 µM (inactive),14.3 µM (inactive),2.62 µM (inactive),22.1 µM (inactive),2.56 µM (inactive),8.45 µM (inactive),17.5 µM (inactive),15.2 µM (inactive),10.7 µM (inactive),10.3 µM (inactive),24.8 µM (inactive),17.6 µM (inactive)
CN(c1nc(=[N+](C)C)ss1)C1CCCCC1,,> 100 µM (inactive),33.4 µM (inactive),95.1 µM (inactive),> 100 µM (inactive),> 100 µM (inactive),19.4 µM (inactive),> 100 µM (inactive),,> 100 µM (inactive),> 100 µM (inactive),> 100 µM (inactive),> 100 µM (inactive),38.3 µM (inactive),> 100 µM (inactive)
Clc1cc2n[se]nc2cc1Cl,,> 100 µM (inactive),> 100 µM (inactive),> 100 µM (inactive),> 100 µM (inactive),84.1 µM (inactive),> 100 µM (inactive),> 100 µM (inactive),,> 100 µM (inactive),> 100 µM (inactive),> 100 µM (inactive),> 100 µM (inactive),> 100 µM (inactive),
COc1cccc2c(SCC(=O)Nc3ccccc3-c3ccccc3NC(=O)CSc3c4ccccc4nc4c(OC)cccc34)c3ccccc3nc12,> 100 µM (inactive),> 100 µM (inactive),> 100 µM (inactive),> 100 µM (inactive),,9.93 µM (inactive),38.6 µM (inactive),76.9 µM (inactive),> 100 µM (inactive),> 100 µM (inactive),,,> 100 µM (inactive),> 100 µM (inactive),> 100 µM (inactive)
CCCC(N)C(=O)c1ccccc1 (stereo unspecified),> 100 µM (inactive),> 100 µM (inactive),> 100 µM (inactive),,> 100 µM (inactive),> 100 µM (inactive),> 100 µM (inactive),> 100 µM (inactive),> 100 µM (inactive),> 100 µM (inactive),> 100 µM (inactive),> 100 µM (inactive),> 100 µM (inactive),> 100 µM (inactive),> 100 µM (inactive)
COc1ccc2nc3cc(Cl)ccc3c(Sc3ccc([N+](=O)[O-])cc3C)c2c1,> 100 µM (inactive),> 100 µM (inactive),> 100 µM (inactive),> 100 µM (inactive),> 100 µM (inactive),,> 100 µM (inactive),> 100 µM (inactive),4.06 µM (inactive),> 100 µM (inactive),> 100 µM (inactive),> 100 µM (inactive),> 100 µM (inactive),> 100 µM (inactive),> 100 µM (inactive)
CC(=O)O[C@H]1CC[C@@]2(C)C(=CC[C@@H]3C2CC[C@]2(C)C(=O)NC(=O)CC32)C1 (stereo partly specified),,> 100 µM (inactive),58.6 µM (inactive),> 100 µM (inactive),> 100 µM (inactive),> 63.1 µM (inactive),> 100 µM (inactive),,> 100 µM (inactive),> 100 µM (inactive),> 100 µM (inactive),> 100 µM (inactive),63.5 µM (inactive),> 100 µM (inactive),> 100 µM (inactive)
C=C/C=C/NC(=O)OCc1ccccc1,> 100 µM (inactive),> 100 µM (inactive),> 100 µM (inactive),> 100 µM (inactive),> 100 µM (inactive),> 100 µM (inactive),> 100 µM (inactive),98.9 µM (inactive),> 100 µM (inactive),> 100 µM (inactive),> 100 µM (inactive),,> 100 µM (inactive),> 100 µM (inactive),
NC1=NS(=O)(=O)Nc2nc(-c3ccc(Cl)cc3)c(-c3ccc(Cl)cc3)nc21,> 100 µM (inactive),> 100 µM (inactive),65.8 µM (inactive),> 100 µM (inactive),> 100 µM (inactive),> 100 µM (inactive),> 100 µM (inactive),> 100 µM (inactive),> 100 µM (inactive),> 100 µM (inactive),> 100 µM (inactive),> 100 µM (inactive),> 100 µM (inactive),> 100 µM (inactive),
Nc1ccc(C(=O)O)c2[nH]c3ccccc3c(=O)c12,,> 100 µM (inactive),> 100 µM (inactive),> 100 µM (inactive),> 100 µM (inactive),> 100 µM (inactive),> 100 µM (inactive),> 100 µM (inactive),> 100 µM (inactive),> 100 µM (inactive),> 100 µM (inactive),> 100 µM (inactive),> 100 µM (inactive),> 100 µM (inactive),
CC1=C(C(=O)Nc2c(C)cccc2C)C(c2ccc3c(c2)OCO3)C(C(=O)Nc2c(C)cccc2C)=C(C)N1,36.3 µM (inactive),17.5 µM (inactive),15.5 µM (inactive),15 µM (inactive),16.9 µM (inactive),16.3 µM (inactive),2.7 µM (inactive),22.5 µM (inactive),21.9 µM (inactive),30.3 µM (inactive),16.6 µM (inactive),20.2 µM (inactive),13.7 µM (inactive),19.7 µM (inactive),17.5 µM (inactive)
CCCCCC(CN1CCOCC1)C(=O)/C=C/c1ccccc1 (stereo unspecified),2.3 µM (inactive),,2.77 µM (inactive),1.71 µM (inactive),6.61 µM (inactive),1.85 µM (inactive),1.46 µM (inactive),1.95 µM (inactive),3.77 µM (inactive),2.95 µM (inactive),2.96 µM (inactive),2.1 µM (inactive),1.76 µM (inactive),3.3 µM (inactive),3.36 µM (inactive)
O=S(O)CCCCSSCC(O)C(O)CSSCCCCS(=O)O (stereo unspecified),11.4 µM (inactive) and 12.4 µM (inactive),26.1 µM (inactive) and 22.1 µM (inactive),71.1 µM (inactive) and 50.6 µM (inactive),918 nM (active) and 697 nM (active),16.7 µM (inactive) and 9.33 µM (inactive),10.2 µM (inactive) and 10.6 µM (inactive),12.9 µM (inactive) and 8.73 µM (inactive),,18.5 µM (inactive) and 14.6 µM (inactive),10.7 µM (inactive) and 5.66 µM (inactive),8.39 µM (inactive) and 4.7 µM (inactive),7.08 µM (inactive) and 7.24 µM (inactive),> 100 µM (inactive),34.5 µM (inactive) and 27.1 µM (inactive),
CCN(CC)CCCCC1CCN(CC(=O)N2c3ccccc3NC(=O)c3ccccc32)CC1,> 100 µM (inactive),,,> 100 µM (inactive),> 100 µM (inactive),> 100 µM (inactive),> 100 µM (inactive),> 100 µM (inactive),> 100 µM (inactive),> 100 µM (inactive),48.1 µM (inactive),81.5 µM (inactive),> 100 µM (inactive),> 100 µM (inactive),> 100 µM (inactive)
[N-]=[N+]=NC1C(Cl)C(=O)NC(=O)N1[C@H]1C[C@H](O)[C@@H](CO)O1 (stereo partly specified),> 100 µM (inactive),> 100 µM (inactive),> 100 µM (inactive),> 100 µM (inactive),> 100 µM (inactive),> 100 µM (inactive),> 100 µM (inactive),,> 100 µM (inactive),> 100 µM (inactive),> 100 µM (inactive),13.3 µM (inactive),> 100 µM (inactive),> 100 µM (inactive),
CC1CCCCc2nc3c(c(=O)n21)CCCC3 (stereo unspecified),> 100 µM (inactive),> 100 µM (inactive),> 100 µM (inactive),> 100 µM (inactive),> 100 µM (inactive),,> 100 µM (inactive),,> 100 µM (inactive),> 100 µM (inactive),> 100 µM (inactive),> 100 µM (inactive),> 100 µM (inactive),> 100 µM (inactive),> 100 µM (inactive)
